Results from patent publication US8614203B2, “Methods for the treatment of a central nervous system injury via a tapered administration protocol” (Emory University, priority 2005, dated 2013).

System: medial frontal cortex (MFC) injury or sham
Experiment: Example 4: Digiscan locomotor activity boxes (center time)
Assay type: in vivo, Sprague-Dawley rats
Excerpt: 60 male Sprague-Dawley rats weighing 290-310 g at the time of injury were used in this experiment. Food and water were provided ad libidum before and after surgery. Animals were handled and weighed daily from their arrival, seven days pre-surgery, to brain extraction three weeks post-surgery. Animals were handled in squads of 12, with n=10 per experimental condition. All animal procedures were approved by the Emory University Animal Care and Use Committee, Protocol #131-2002.
Isofluorane anesthesia was induced for four minutes and 45 seconds at 5% and maintained at 2.5%. Normal body temperature was maintained with a surgical heating pad placed beneath the sterile dressings. The scalp incision area was shaved and sterilized with iodine and isopropanol. A midline incision was made along the scalp and the fascia cleared to expose the surface of the skull. Medial, lateral, and dorsal stereotaxic coordinates were determined at bregma, and a 5-7 mm diameter bilateral craniotomy was performed mid-sagitally, 3 mm anterior to bregma. […] Sutures were used to close the incision after bleeding ceased. Animals were placed in individual heated, clean recovery cages until they awakened, and were returned to clean individual home cages with accessible moistened food pellets. Sham animals were anesthetized, and an incision was made at the top of the head. The fascia was cleared to expose bregma, then the incision was sutured closed. Sham surgeries were matched to lesion surgeries for all experimental conditions.
Sham (S) and lesion (L) animals were randomly assigned to one of three treatment groups: vehicle (VS, VL), acute withdrawal (AWS, AWL), and tapered withdrawal (TWS, TWL). […] Tapering was induced as halved dosages over the last two days of treatment. Dilutions for TW treatments were made with HBC stock. All injections were administered intraperitoneally at one hour post-injury, and subcutaneously at six hours post-injury and every 24 hours through the end of the treatment cycle. Five sets of 12 animals each were used, for a total n=10 for each experimental group over the entire experiment. Of these animals, all were used to acquire behavioral data, four samples were used for protein analysis, and six samples were used for histological analysis for each test condition.
Random order, blinded testing occurred under red light in a quiet environment one day before injury, and one and seven days post-withdrawal. Up to four animals were tested using the Digiscan Activity Monitoring System (AccuScan Instruments, inc. Columbus, Ohio) in each trial, with a total of three trials per test day. Rats were placed in the furthest left corner of the Digiscan Activity Box. At that time, the toggle switch was flipped to ‘on’. At exactly five minutes the computer ceased testing, assuring that all tests were the same length regardless of start time. Files were saved according to date and trial number, and the number of fecal boli recorded. Activity boxes were cleaned with 70% ethanol and dried between trials. Center time was defined by the computer as the amount of time the animal spent exploring the activity box away from the corners.
All results were expressed as the mean plus or minus the standard error of the mean. Statistical significance was set at p<0.05 for two-tailed tests, and data were analyzed using one-way analysis of variance (ANOVA) followed by LSD post hoc tests. […]

CC(=O)[C@H]1CC[C@H]2[C@@H]3CCC4=CC(=O)CC[C@]4(C)[C@H]3CC[C@]12C [progesterone, pregn-4-ene-3,20-dione]
center time (acute withdrawal, lesion (AWL), one and seven days post-withdrawal): increased center time compared to VL animals | center time (acute withdrawal, sham (AWS), one day post-withdrawal): significantly less center time compared to other shams | center time (sham groups (AWS, TWS, VS), seven days post-withdrawal): all sham animals spent equivalent center time | center time (tapered withdrawal, lesion (TWL), one and seven days post-withdrawal): increased center time over AWL animals | center time (tapered withdrawal, sham (TWS), one day post-withdrawal): increased center time at one day compared to VS animals
